Experimental data reported in the NIST ThermoML archive (doi:10.1021/je500455u).
Numbers after ± are expanded uncertainties.

Details: 101.33 kPa, Liquid, Vibrating tube method

Row | SMILES | mass density (298.15 K) [kg/m3] | mass density (278.15 K) [kg/m3] | mass density (283.15 K) [kg/m3] | mass density (288.15 K) [kg/m3] | mass density (293.15 K) [kg/m3] | mass density (303.15 K) [kg/m3] | mass density (308.15 K) [kg/m3] | mass density (313.15 K) [kg/m3] | mass density (318.15 K) [kg/m3] | mass density (323.15 K) [kg/m3] | mass density (328.15 K) [kg/m3] | mass density (333.15 K) [kg/m3] | mass density (338.15 K) [kg/m3] | mass density (343.15 K) [kg/m3]
1 | OC(C(F)(F)F)C(F)(F)F [1,1,1,3,3,3-hexafluoro-2-propanol] | 1604.84 ± 0.78 |  |  |  |  |  |  |  |  |  |  |  |  | 
2 | CO [methanol] | 786.58 ± 0.23 |  |  |  |  |  |  |  |  |  |  |  |  | 
3 | FC(F)(F)C1(F)C(F)(F)C(F)(F)C(F)(F)C(F)(F)C1(F)F [perfluoro(methylcyclohexane)] | 1786.6 ± 1 | 1841 ± 1 | 1827.6 ± 1 | 1814 ± 1 | 1800.4 ± 1 | 1772.7 ± 1 | 1758.7 ± 0.9 | 1744.5 ± 0.9 | 1730.3 ± 0.9 | 1715.8 ± 0.9 | 1701.2 ± 0.9 | 1686.4 ± 0.9 | 1671.5 ± 0.9 | 1656.3 ± 0.8
4 | FC(F)(F)C(F)(F)C(F)(F)C(F)(F)C(F)(F)C(F)(F)F [perfluorohexane] | 1684.4 ± 0.9 | 1742.5 ± 0.9 | 1728.3 ± 0.9 | 1713.8 ± 0.9 | 1699.2 ± 0.9 | 1669.4 ± 0.9 | 1654.1 ± 0.8 | 1638.6 ± 0.8 | 1622.9 ± 0.8 | 1606.4 ± 0.8 | 1590.5 ± 0.8 |  |  | 
